# According to PubChem BioAssay (NCI):
#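 Five concentrations, 48 hours, 96-well plates. TGI: concentration producing complete growth inhibition.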
# Assays:
# Test in all cases: NCI-60 cell line screen, 48 h
# [1] = system: 786-0 renal
# [2] = system: A498 renal
# [3] = system: A549 NSCLC
# [4] = system: ACHN renal
# [5] = system: BT-549 breast
# [6] = system: CAKI-1 renal
# [7] = system: CCRF-CEM leukemia
# [8] = system: COLO 205 colon
# [9] = system: DU-145 prostate
# [10] = system: EKVX NSCLC
# [11] = system: HCC-2998 colon
# [12] = system: HCT-116 colon
# [13] = system: HCT-15 colon
# [14] = system: HOP-62 NSCLC
# [15] = system: HOP-92 NSCLC
# [16] = system: HS 578T breast
# [17] = system: HT29 colon
# [18] = system: IGROV1 ovarian
# [19] = system: K-562 leukemia
# [20] = system: KM12 colon
# [21] = system: LOX IMVI melanoma
# [22] = system: M14 melanoma
# [23] = system: MALME-3M melanoma
# [24] = system: MCF7 breast
# [25] = system: MDA-MB-231 breast
# [26] = system: MDA-MB-435
# [27] = system: MDA-N
# [28] = system: MOLT-4 leukemia
# [29] = system: NCI-H226 lung
# [30] = system: NCI-H23 lung
# [31] = system: NCI-H460 lung
# [32] = system: NCI-H522 lung
# [33] = system: OVCAR-3 ovarian
# [34] = system: OVCAR-4 ovarian
# [35] = system: OVCAR-5 ovarian
# [36] = system: OVCAR-8 ovarian
# [37] = system: PC-3 prostate
# [38] = system: RPMI-8226 leukemia
# [39] = system: RXF 393 renal
# [40] = system: SF-268 CNS
# [41] = system: SF-295 CNS
# [42] = system: SF-539 CNS
# [43] = system: SK-MEL-2 melanoma
# [44] = system: SK-MEL-28 melanoma
# [45] = system: SK-MEL-5 melanoma
# [46] = system: SK-OV-3 ovarian
# [47] = system: SN12C renal
# [48] = system: SNB-19 CNS
# [49] = system: SNB-75 CNS
# [50] = system: SR leukemia
# [51] = system: SW-620 colon
# [52] = system: T-47D breast
# [53] = system: TK-10 renal
# [54] = system: U251 CNS
# [55] = system: UACC-257 melanoma
# [56] = system: UACC-62 melanoma
# [57] = system: UO-31 renal
# [58] = system: HL-60(TB) leukemia
smiles,measurement,setting,value
CSc1ncnc2c1cnn2Cc1cn(CCCCO)nn1,TGI,[1],> 100 µM
same,TGI,[2],> 100 µM
same,TGI,[3],> 100 µM
same,TGI,[4],> 100 µM
same,TGI,[5],> 100 µM
same,TGI,[6],> 100 µM
same,TGI,[7],> 100 µM
same,TGI,[8],> 100 µM
same,TGI,[9],> 100 µM
same,TGI,[10],> 100 µM
same,TGI,[11],> 100 µM
same,TGI,[12],> 100 µM
same,TGI,[13],> 100 µM
same,TGI,[14],> 100 µM
same,TGI,[15],> 100 µM
same,TGI,[16],> 100 µM
same,TGI,[17],> 100 µM
same,TGI,[18],> 100 µM
same,TGI,[19],> 100 µM
same,TGI,[20],> 100 µM
same,TGI,[21],> 100 µM
same,TGI,[22],> 100 µM
same,TGI,[23],> 100 µM
same,TGI,[24],> 100 µM
same,TGI,[25],> 100 µM
same,TGI,[26],> 100 µM
same,TGI,[27],> 100 µM
same,TGI,[28],> 100 µM
same,TGI,[29],> 100 µM
same,TGI,[30],> 100 µM
same,TGI,[31],> 100 µM
same,TGI,[32],> 100 µM
same,TGI,[33],> 100 µM
same,TGI,[34],> 100 µM
same,TGI,[35],> 100 µM
same,TGI,[36],> 100 µM
same,TGI,[37],> 100 µM
same,TGI,[38],> 100 µM
same,TGI,[39],> 100 µM
same,TGI,[40],> 100 µM
same,TGI,[41],> 100 µM
same,TGI,[42],> 100 µM
same,TGI,[43],> 100 µM
same,TGI,[44],> 100 µM
same,TGI,[45],> 100 µM
same,TGI,[46],> 100 µM
same,TGI,[47],> 100 µM
same,TGI,[48],> 100 µM
same,TGI,[49],> 100 µM
same,TGI,[50],> 100 µM
same,TGI,[51],> 100 µM
same,TGI,[52],> 100 µM
same,TGI,[53],> 100 µM
same,TGI,[54],> 100 µM
same,TGI,[55],> 100 µM
same,TGI,[56],> 100 µM
same,TGI,[57],> 100 µM
CN1CCN(C(=S)N(C(=O)c2ccco2)C2CCCCC2)CC1,TGI,[1],> 100 µM
same,TGI,[3],> 100 µM
same,TGI,[4],> 100 µM
same,TGI,[5],> 100 µM
same,TGI,[7],> 100 µM
same,TGI,[8],> 100 µM
same,TGI,[9],> 100 µM
same,TGI,[11],> 100 µM
same,TGI,[13],> 100 µM
same,TGI,[15],> 100 µM
same,TGI,[16],> 100 µM
same,TGI,[17],> 100 µM
same,TGI,[18],> 100 µM
same,TGI,[19],> 100 µM
same,TGI,[20],> 100 µM
same,TGI,[21],> 100 µM
same,TGI,[22],> 100 µM
same,TGI,[23],> 100 µM
same,TGI,[24],> 100 µM
same,TGI,[25],> 100 µM
same,TGI,[26],> 100 µM
same,TGI,[27],> 100 µM
same,TGI,[29],> 100 µM
same,TGI,[30],> 100 µM
same,TGI,[31],> 100 µM
same,TGI,[32],> 100 µM
same,TGI,[33],> 100 µM
same,TGI,[34],> 100 µM
same,TGI,[35],> 100 µM
same,TGI,[36],> 100 µM
same,TGI,[38],> 100 µM
same,TGI,[39],> 100 µM
same,TGI,[40],> 100 µM
same,TGI,[41],> 100 µM
same,TGI,[43],> 100 µM
same,TGI,[44],> 100 µM
same,TGI,[45],> 100 µM
same,TGI,[47],> 100 µM
same,TGI,[48],> 100 µM
same,TGI,[49],> 100 µM
same,TGI,[50],> 100 µM
same,TGI,[51],> 100 µM
same,TGI,[52],> 100 µM
same,TGI,[53],> 100 µM
same,TGI,[54],> 100 µM
same,TGI,[55],> 100 µM
same,TGI,[56],> 100 µM
same,TGI,[57],> 100 µM
COC(=O)c1cc(C)ccc1/C=C1\Cc2cccc(C)c2C1=O,TGI,[1],> 100 µM
same,TGI,[2],> 100 µM
same,TGI,[3],> 100 µM
same,TGI,[4],> 100 µM
same,TGI,[5],> 100 µM
same,TGI,[6],> 100 µM
same,TGI,[7],> 100 µM
same,TGI,[9],> 100 µM
same,TGI,[10],> 100 µM
same,TGI,[11],> 100 µM
same,TGI,[12],> 100 µM
same,TGI,[13],> 100 µM
same,TGI,[58],> 100 µM
same,TGI,[14],> 100 µM
same,TGI,[15],> 100 µM
same,TGI,[16],> 100 µM
same,TGI,[17],> 100 µM
same,TGI,[18],> 100 µM
same,TGI,[19],> 100 µM
same,TGI,[20],> 100 µM
same,TGI,[21],66.2 µM
same,TGI,[22],> 100 µM
same,TGI,[23],96.9 µM
same,TGI,[24],> 100 µM
same,TGI,[25],> 100 µM
same,TGI,[27],61.8 µM
same,TGI,[28],> 100 µM
same,TGI,[29],> 100 µM
same,TGI,[30],> 100 µM
same,TGI,[31],> 100 µM
same,TGI,[32],58.7 µM
same,TGI,[33],> 100 µM
same,TGI,[34],> 100 µM
same,TGI,[35],> 100 µM
same,TGI,[36],81.4 µM
same,TGI,[37],62.2 µM
same,TGI,[38],> 100 µM
same,TGI,[39],> 100 µM
same,TGI,[40],> 100 µM
same,TGI,[41],> 100 µM
same,TGI,[42],> 100 µM
same,TGI,[44],> 100 µM
same,TGI,[45],25.9 µM
same,TGI,[47],96 µM
same,TGI,[48],> 100 µM
same,TGI,[49],> 100 µM
same,TGI,[50],> 100 µM
same,TGI,[51],> 100 µM
same,TGI,[52],> 100 µM
same,TGI,[53],> 100 µM
same,TGI,[54],> 100 µM
same,TGI,[55],> 100 µM
same,TGI,[57],> 100 µM
